Test system: Bacteria mixture 2 (alkaliphilic bacteria of the Nesterenkonia & Alkalibacterium genus)
Test: Repetitive stress test of paints with bacteria mixture 2, semiquantitative evaluation (examples 4 and 5)
Type: cell-based
Parameters: key to Bacterial growth after inoculation: 0: No growth; Minimal growth, 1 to 10 colonies visible over the entire streak; 2: Light growth, maximum 100 colonies; Moderate growth, maximum 300 to 400 colonies; Uniform growth, >400 colonies, single colonies still clearly recognizable; 5: Heavy growth, too many colonies to count, but no growth over the entire streak; 6: Full growth, barely any single colonies still apparent, growth over the entire streak
Settings: Table 4
Excerpt: Paints 1 to 3 were mixed and homogenized with various concentrations of the guanidinium salts to be tested.
The batches obtained of the paint thus prepared were inoculated repeatedly with a mixture of different wild-type bacterial strains that are of practical relevance with regard to contamination. These bacteria had previously been isolated from commercial emulsion paints containing conventional preservatives (bacteria mixture 1, Pseudomonas genus), which are microbially contaminated in practice, and commercial so-called preservative-free alkaline emulsion paints (bacteria mixture 2, alkaliphilic bacteria of the Nesterenkonia & Alkalibacterium genus), which are microbially contaminated in practice.
• Nesterenkonia sp. DSM 108520 • Nesterenkonia sp. DSM 108521 • Alkalibacterium pelagium DSM 108522 • Nesterenkonia massiliensis DSM 110679 • Nesterenkonia sp. DSM 108519
The inoculum was added to the respective sample in each inoculation at 2% (v/w) as a fresh cell suspension in a physiological saline solution (0.9% NaCl). The cell count of the added inoculum in example 1 was 10^5/ml, in examples 2 to 5 10^9/ml, and in example 6 10^6/ml, each in equal portions consisting of the individual bacterial strains. The cell suspension was produced by growing the individual bacteria at 30° C. for 24 h in liquid culture on a shaker. The medium used to grow the bacteria from bacteria mixture 1 was Müller-Hinton liquid medium. Bacteria from bacteria mixture 2 were grown in Müller-Hinton liquid medium that had been adjusted to pH 9.5-9.7 with an alkaline buffer solution beforehand. After growing, the individual liquid cultures were centrifuged, and the cells were resuspended in physiological saline solution. In order to adjust the mixture to the desired cell count, the individual bacteria suspensions, if necessary, were diluted accordingly before being combined with saline solution. The cell count of the inoculum was determined in each case by chamber counting.
In examples 2 to 6, what is called a repetitive stress test with bacteria was conducted by inoculating the samples at particular time intervals repeatedly with a bacteria suspension having a cell count of 10^9/ml (2% v/w) and monitoring the evolution of the bacteria by a semiquantitative evaluation method. After each inoculation, the samples were incubated at 30° C. for 6 days (bacteria mixture 1 and 3) or 7 and 14 days (bacteria mixture 2), and after these periods bacterial infestation was evaluated semiquantitatively in each case. For this purpose, an aliquot was taken from each sample after homogenization using a sterile plastic inoculation loop (10 μl) and streaked evenly on agar plates (bacteria mixture 1 and 3 on tryptic soy agar, bacteria mixture 2 on DSMZ 31 alkaline nutrient agar). The streaked agar plates were then incubated at 30° C. for 48 h (bacteria mixture 1 and 3) or 5 to 7 days (bacteria mixture 2). After incubation, the bacterial colonies grown on the agar plates were visually evaluated and quantified according to the following scheme:
A total of 3 inoculation cycles was performed in each repetitive stress test.
Inoculation 2% (w/v) with Bacteria Mixture 2, 10^9 CFU/ml

`N=C(N)N.N=C(N)N.O=C(O)O` [guanidine carbonate] was tested, and the “Bacterial growth after inoculation” value (Paint 1, +0.1% guanidine carbonate (656 ppm guanidine), pH 9.1, 1. inoculation, 7 d) was 0/0, the “Bacterial growth after inoculation” value (Paint 1, +0.1% guanidine carbonate (656 ppm guanidine), pH 9.1, 1. inoculation, 14 d) was 0/0 and the “Bacterial growth after inoculation” value (Paint 1, +0.1% guanidine carbonate (656 ppm guanidine), pH 9.1, 2. inoculation, 7 d) was 0/0. The “Bacterial growth after inoculation” value (Paint 1, +0.1% guanidine carbonate (656 ppm guanidine), pH 9.1, 2. inoculation, 14 d) was 0/0, the “Bacterial growth after inoculation” value (Paint 1, +0.1% guanidine carbonate (656 ppm guanidine), pH 9.1, 3. inoculation, 7 d) was 6/6 and the “Bacterial growth after inoculation” value (Paint 1, +0.1% guanidine carbonate (656 ppm guanidine), pH 9.1, 3. inoculation, 14 d) was 6/6. The “Bacterial growth after inoculation” value (Paint 1, +0.15% guanidine carbonate (984 ppm guanidine), pH 9.4, 1. inoculation, 7 d) was 0/0, the “Bacterial growth after inoculation” value (Paint 1, +0.15% guanidine carbonate (984 ppm guanidine), pH 9.4, 1. inoculation, 14 d) was 0/0 and the “Bacterial growth after inoculation” value (Paint 1, +0.15% guanidine carbonate (984 ppm guanidine), pH 9.4, 2. inoculation, 7 d) was 0/0. The “Bacterial growth after inoculation” value (Paint 1, +0.15% guanidine carbonate (984 ppm guanidine), pH 9.4, 2. inoculation, 14 d) was 0/0, the “Bacterial growth after inoculation” value (Paint 1, +0.15% guanidine carbonate (984 ppm guanidine), pH 9.4, 3. inoculation, 7 d) was 0/0 and the “Bacterial growth after inoculation” value (Paint 1, +0.15% guanidine carbonate (984 ppm guanidine), pH 9.4, 3. inoculation, 14 d) was 0/0. For the same compound, the “Bacterial growth after inoculation” value (Paint 1, +0.2% guanidine carbonate (1312 ppm guanidine), pH 9.6, 1. inoculation, 7 d) was 0/0, the “Bacterial growth after inoculation” value (Paint 1, +0.2% guanidine carbonate (1312 ppm guanidine), pH 9.6, 1. inoculation, 14 d) was 0/0 and the “Bacterial growth after inoculation” value (Paint 1, +0.2% guanidine carbonate (1312 ppm guanidine), pH 9.6, 2. inoculation, 7 d) was 0/0. The “Bacterial growth after inoculation” value (Paint 1, +0.2% guanidine carbonate (1312 ppm guanidine), pH 9.6, 2. inoculation, 14 d) was 0/0, the “Bacterial growth after inoculation” value (Paint 1, +0.2% guanidine carbonate (1312 ppm guanidine), pH 9.6, 3. inoculation, 7 d) was 0/0 and the “Bacterial growth after inoculation” value (Paint 1, +0.2% guanidine carbonate (1312 ppm guanidine), pH 9.6, 3. inoculation, 14 d) was 0/0. For the same compound, the “Bacterial growth after inoculation” value (Paint 1, +0.25% guanidine carbonate (1640 ppm guanidine), pH 9.7, 1. inoculation, 7 d) was 0/0, the “Bacterial growth after inoculation” value (Paint 1, +0.25% guanidine carbonate (1640 ppm guanidine), pH 9.7, 1. inoculation, 14 d) was 0/0 and the “Bacterial growth after inoculation” value (Paint 1, +0.25% guanidine carbonate (1640 ppm guanidine), pH 9.7, 2. inoculation, 7 d) was 0/0. For the same compound, the “Bacterial growth after inoculation” value (Paint 1, +0.25% guanidine carbonate (1640 ppm guanidine), pH 9.7, 2. inoculation, 14 d) was 0/0, the “Bacterial growth after inoculation” value (Paint 1, +0.25% guanidine carbonate (1640 ppm guanidine), pH 9.7, 3. inoculation, 7 d) was 0/0 and the “Bacterial growth after inoculation” value (Paint 1, +0.25% guanidine carbonate (1640 ppm guanidine), pH 9.7, 3. inoculation, 14 d) was 0/0. The “Bacterial growth after inoculation” value (Paint 1, +0.3% guanidine carbonate (1968 ppm guanidine), pH 9.7, 1. inoculation, 7 d) was 0/0, the “Bacterial growth after inoculation” value (Paint 1, +0.3% guanidine carbonate (1968 ppm guanidine), pH 9.7, 1. inoculation, 14 d) was 0/0 and the “Bacterial growth after inoculation” value (Paint 1, +0.3% guanidine carbonate (1968 ppm guanidine), pH 9.7, 2. inoculation, 7 d) was 0/0. For the same compound, the “Bacterial growth after inoculation” value (Paint 1, +0.3% guanidine carbonate (1968 ppm guanidine), pH 9.7, 2. inoculation, 14 d) was 0/0, the “Bacterial growth after inoculation” value (Paint 1, +0.3% guanidine carbonate (1968 ppm guanidine), pH 9.7, 3. inoculation, 7 d) was 0/0 and the “Bacterial growth after inoculation” value (Paint 1, +0.3% guanidine carbonate (1968 ppm guanidine), pH 9.7, 3. inoculation, 14 d) was 0/0. The “Bacterial growth after inoculation” value (Paint 1, +0.4% guanidine carbonate (2624 ppm guanidine), pH 9.9, 1. inoculation, 7 d) was 0/0, the “Bacterial growth after inoculation” value (Paint 1, +0.4% guanidine carbonate (2624 ppm guanidine), pH 9.9, 1. inoculation, 14 d) was 0/0 and the “Bacterial growth after inoculation” value (Paint 1, +0.4% guanidine carbonate (2624 ppm guanidine), pH 9.9, 2. inoculation, 7 d) was 0/0. For the same compound, the “Bacterial growth after inoculation” value (Paint 1, +0.4% guanidine carbonate (2624 ppm guanidine), pH 9.9, 2. inoculation, 14 d) was 0/0, the “Bacterial growth after inoculation” value (Paint 1, +0.4% guanidine carbonate (2624 ppm guanidine), pH 9.9, 3. inoculation, 7 d) was 0/0 and the “Bacterial growth after inoculation” value (Paint 1, +0.4% guanidine carbonate (2624 ppm guanidine), pH 9.9, 3. inoculation, 14 d) was 0/0. The “Bacterial growth after inoculation” value (Paint 1, +0.5% guanidine carbonate (3280 ppm guanidine), pH 10.1, 1. inoculation, 7 d) was 0/0, the “Bacterial growth after inoculation” value (Paint 1, +0.5% guanidine carbonate (3280 ppm guanidine), pH 10.1, 1. inoculation, 14 d) was 0/0 and the “Bacterial growth after inoculation” value (Paint 1, +0.5% guanidine carbonate (3280 ppm guanidine), pH 10.1, 2. inoculation, 7 d) was 0/0. For the same compound, the “Bacterial growth after inoculation” value (Paint 1, +0.5% guanidine carbonate (3280 ppm guanidine), pH 10.1, 2. inoculation, 14 d) was 0/0, the “Bacterial growth after inoculation” value (Paint 1, +0.5% guanidine carbonate (3280 ppm guanidine), pH 10.1, 3. inoculation, 7 d) was 0/0 and the “Bacterial growth after inoculation” value (Paint 1, +0.5% guanidine carbonate (3280 ppm guanidine), pH 10.1, 3. inoculation, 14 d) was 0/0. For the same compound, the “Bacterial growth after inoculation” value (Paint 1, +1.0% guanidine carbonate (6560 ppm guanidine), pH 10.4, 1. inoculation, 7 d) was 0/0, the “Bacterial growth after inoculation” value (Paint 1, +1.0% guanidine carbonate (6560 ppm guanidine), pH 10.4, 1. inoculation, 14 d) was 0/0 and the “Bacterial growth after inoculation” value (Paint 1, +1.0% guanidine carbonate (6560 ppm guanidine), pH 10.4, 2. inoculation, 7 d) was 0/0. The “Bacterial growth after inoculation” value (Paint 1, +1.0% guanidine carbonate (6560 ppm guanidine), pH 10.4, 2. inoculation, 14 d) was 0/0, the “Bacterial growth after inoculation” value (Paint 1, +1.0% guanidine carbonate (6560 ppm guanidine), pH 10.4, 3. inoculation, 7 d) was 0/0 and the “Bacterial growth after inoculation” value (Paint 1, +1.0% guanidine carbonate (6560 ppm guanidine), pH 10.4, 3. inoculation, 14 d) was 0/0. For the same compound, the “Bacterial growth after inoculation” value (Paint 2, +0.1% guanidine carbonate (656 ppm guanidine), pH 8.9, 1. inoculation, 7 d) was 2 (Light growth, maximum 100 colonies), the “Bacterial growth after inoculation” value (Paint 2, +0.1% guanidine carbonate (656 ppm guanidine), pH 8.9, 1. inoculation, 14 d) was 0 and the “Bacterial growth after inoculation” value (Paint 2, +0.1% guanidine carbonate (656 ppm guanidine), pH 8.9, 2. inoculation, 7 d) was 6.

Source: patent US20260265538A1, “Aqueous Industrial Product Stabilized Against Microbial Contamination” (Thor GmbH, priority 2023, published 2026)
